Earlier results as cited in paper PMC12308805, “Ultrahigh-Throughput Virtual Screening Strategies against PPI Targets: A Case Study of STAT Inhibitors” (Journal of Chemical Information and Modeling, 2025).
Numbered stars: 1 amine (or outer) side, 2 acyl side, 3 side chain; on linkers, the order of the positions; unused ones are H or OH. Square brackets hold non-standard residues; d marks the D form. Peptide text beside a SMILES is read from it. * marks the point of attachment. X5 = O=C([C@@H]1[C@@H]2C[C@@H]2CN1[*:1])[*:2]; pY = N[C@@H](Cc1ccc(OP(=O)(O)O)cc1)C(=O)O; βNA = c1ccc2cc(N*)ccc2c1

System: STAT3
Details: cited from earlier work

| Structure (SMILES) | Type (known STAT3 active) |
| --- | --- |
| CC(=O)N[C@@H](Cc1ccc(OP(=O)(O)O)cc1)C(=O)N[C@@H](CC(C)C)C(=O)N1C[C@H]2C[C@H]2[C@H]1C(=O)N[C@@H](CCC(N)=O)C(=O)N[C@H](C(N)=O)[C@@H](C)O [CHEMBL436319] (Ac-[pY]L[X5]QT-NH2) | Active |
| CC(C)C[C@H](NC(=O)/C=C/c1ccc(OP(=O)(O)O)cc1)C(=O)N1CCC[C@H]1C(=O)N[C@@H](CCC(N)=O)[C@@H](C)OCc1ccccc1 [CHEMBL583758] | Active |

Same assay, conditions: sheet 6QHD_actives_decoys, retrospective screening set for STAT3 SH2 domain (PDB 6QHD); decoys are presumed inactives, not tested; ref DUD-E; cited from earlier work

| Structure (SMILES) | Type |
| --- | --- |
| COc1cc(-c2ccc(NC(=O)c3ccc(OC)c(OC)c3)c(OC)c2)ccc1NC(=O)c1ccc(OC)c(OC)c1 [Decoy903] | Inactive (Decoy) |
| COC(=O)c1sc(NC(=O)CCCS(=O)(=O)c2nc(-c3ccc(OC)c(OC)c3)cc(C(F)(F)F)n2)c(C(N)=O)c1C [Decoy915] | Inactive (Decoy) |
| CC(C)(CO[P@](=O)(O)O[P@](=O)(O)OC[C@H]1O[C@@H](n2cnc3c(N)ncnc32)[C@H](O)[C@@H]1OP(=O)(O)O)[C@@H](O)C(=O)NCCC(=O)NCCS [Decoy847] | Inactive (Decoy) |
| COc1ccc(C(OC[C@H]2O[C@H](Oc3ccc([N+](=O)[O-])cc3)[C@@H](O)[C@@H](O)[C@@H]2O)(c2ccccc2)c2ccc(OC)cc2)cc1 [Decoy888] | Inactive (Decoy) |
| COCCNC(=O)[C@@H](c1ccc(F)cc1)N(C(=O)c1snc(C(N)=O)c1N)c1ccc2c(c1)OCO2 [Decoy808] | Inactive (Decoy) |
| Cc1nnc(CSc2nnc(NC(=O)CSc3n[nH]c(N/N=C/c4ccncc4)n3)s2)o1 [Decoy801] | Inactive (Decoy) |
| O=C(O)CN(CC(=O)O)C[C@@H](Cc1ccc(NCCCCCN2C(=O)C=CC2=O)cc1)N(CC(=O)O)CC(=O)O [Decoy882] | Inactive (Decoy) |
| C[C@H](O)C[C@H](O)[C@@H](SC[C@@H](O)C(=O)O)[C@@H](O)/C=C/Cc1cc2c(Cl)c(O)cc(O)c2c(=O)o1 [Decoy782] | Inactive (Decoy) |
| CCc1ccc(NC(=O)CSC2=C(C#N)[C@H](c3ccco3)C(C(=O)Nc3ccc(S(N)(=O)=O)cc3)=C(C)N2)cc1 [Decoy855] | Inactive (Decoy) |
| COc1ccc([C@H](O[C@@H]2O[C@H](CO)[C@@H](O)[C@H](O)[C@H]2O)[C@@H](CO)Oc2ccc(/C=C/CO)cc2OC)cc1O [Decoy765] | Inactive (Decoy) |

Same assay, conditions: sheet 6QHD_actives_decoys; known STAT3 actives of the retrospective screening set; ref ChEMBL / literature; cited from earlier work

| Structure (SMILES) | Type (known STAT3 active) |
| --- | --- |
| CC(C)C[C@H](NC(=O)/C=C/c1ccc(OP(=O)(O)O)cc1)C(=O)N1C[C@H]2C[C@H]2[C@H]1C(=O)N[C@@H](CCC(N)=O)C(=O)NCc1ccccc1 [CHEMBL575497] | Active |
| CC(C)C[C@H](NC(=O)/C=C/c1ccc(OP(=O)(O)O)cc1)C(=O)N1CCC[C@H]1C(=O)N[C@H](COCc1ccccc1)COC(N)=O [CHEMBL573902] | Active |
| CC(=O)N[C@@H](Cc1ccc(OC(C(=O)O)C(=O)O)cc1)C(=O)N[C@@H](CC(C)C)C(=O)N1CCC[C@H]1C(=O)N[C@@H](CCC(N)=O)C(=O)N[C@H](C(=O)N[C@H](C(=O)O)C(C)C)[C@@H](C)O [CHEMBL231705] | Active |
| NC(=O)CC[C@H](NC(=O)[C@@H]1CC[C@@H]2CC[C@H](NC(=O)/C=C/c3ccc(OP(=O)(O)O)cc3)C(=O)N21)C(=O)NCc1ccccc1 [CHEMBL445970] | Active |
| CSCC[C@H](NC(=O)[C@H](CCC(N)=O)NC(=O)[C@H]1CCCN1C(=O)[C@H](CCCCN)NC(=O)[C@H](Cc1ccc(OP(=O)(O)O)cc1)NC(C)=O)C(=O)N[C@@H](Cc1c[nH]cn1)C(N)=O [CHEMBL160733] (Ac-[pY]K[dP]QMH-NH2) | Active |
| NC(=O)CC[C@H](NC(=O)[C@@H]1Cc2cccc3c2N1C(=O)[C@@H](NC(=O)/C=C/c1ccc(OP(=O)(O)O)cc1)C=C3)C(=O)NCc1ccccc1 [CHEMBL508912] | Active |

Same assay, conditions: sheet 6QHD_actives_decoys; retrospective screening set for STAT3 SH2 domain (PDB 6QHD); […]; ref DUD-E; cited from earlier work

| Structure (SMILES) | Type |
| --- | --- |
| COc1ccccc1[C@H](O)CNC(=O)c1cc(NS(=O)(=O)c2cccc([N+](=O)[O-])c2)ccc1O [Decoy566] | Inactive (Decoy) |
| NCCCC[C@H](NC(=O)[C@@H](CC(=O)O)NC(=O)[C@@H](CC(=O)O)NC(=O)[C@@H](CC(=O)O)NC(=O)[C@@H](CC(=O)O)NC(=O)CN)C(=O)Nc1ccc2ccccc2c1 [Decoy438] (H-G[dD][dD][dD][dD]K-βNA) | Inactive (Decoy) |
| NCCNC(=O)Cc1ccc(NC(=O)Cc2ccc(Nc3ncnc4c3ncn4[C@@H]3O[C@H](CO)[C@@H](O)[C@H]3O)cc2)cc1 [Decoy655] | Inactive (Decoy) |

Same assay, conditions: sheet 6QHD_actives_decoys; retrospective screening set for STAT3 SH2 domain (PDB 6QHD); decoys generated with DUD-E and presumed inactive, not tested; ref DUD-E; cited from earlier work

| Structure (SMILES) | Type |
| --- | --- |
| COc1ccc(N([C@@H](C)C(=O)Nc2ccc(S(=O)(=O)Nc3ccc(Cl)c(C(F)(F)F)c3)cc2)S(C)(=O)=O)cc1 [Decoy412] | Inactive (Decoy) |
| C=C1N=C2C[C@H](c3ccc(OC)c(OC)c3)CC(=O)C2[C@H](c2cc(Br)c(O)c(OCC)c2)C1C(=O)OCCOCC (stereo partly shown) [Decoy369] | Inactive (Decoy) |
| CC[C@H](c1nnnn1C[C@H]1CCCO1)N(Cc1ccc(C)cc1)Cc1cc2cc(OC)c(OC)cc2[nH]c1=O [Decoy698] | Inactive (Decoy) |
| Nc1ccc(/N=N\c2ccc3cc(S(=O)(=O)O)c(/N=N/c4ccc(/N=N/c5ccc(N)cc5N)c(S(=O)(=O)O)c4)c(O)c3c2)c(N)c1 [Decoy383] | Inactive (Decoy) |
| [H]/N=C1/[C@@H](C)[C@@H](O)[C@@](C)(O)[C@@H](CC)OC(=O)[C@H](C)[C@H](O[C@@H]2C[C@@](C)(OC)[C@H](O)[C@H](C)O2)[C@@H](C)[C@H](O[C@H]2O[C@@H](C)C[C@@H](N(C)C)[C@H]2O)[C@@](C)(O)C[C@@H]1C [Decoy389] | Inactive (Decoy) |
| COc1ccc([C@H](C(=O)NCS(=O)(=O)c2ccc(C)cc2)N(Cc2ccco2)C(=O)CCl)cc1 [Decoy337] | Inactive (Decoy) |
| COc1ccc(/C=C(\C#N)C(=O)Nc2ccc(S(=O)(=O)Nc3ccc(C)cc3)cc2)cc1OS(=O)(=O)c1ccc(NC(C)=O)cc1 [Decoy355] | Inactive (Decoy) |
| COc1cc(/C=N/Nc2nnc(SCC(=O)NCCc3ccc(Cl)cc3)n2N)cc(OC)c1OC [Decoy559] | Inactive (Decoy) |
| CNc1ncnc2c1ncn2[C@H]1C[C@H](O)[C@@H](COC(c2ccccc2)(c2ccc(OC)cc2)c2ccc(OC)cc2)O1 [Decoy334] | Inactive (Decoy) |
| CCOC(=O)c1c(NC(=O)CSc2n[nH]c(N/N=C/c3ccc(F)cc3)n2)sc2c1CCCC2 [Decoy437] | Inactive (Decoy) |
| CCOC(=O)Cn1nnnc1[C@@H](CC)N(Cc1ccc(F)cc1)Cc1cc2cc3c(cc2[nH]c1=O)OCCO3 [Decoy585] | Inactive (Decoy) |
| O=C(O)CN(CC(=O)O)CC1=C[C@H]2C(=CC1=O)Oc1cc(O)c(CN(CC(=O)O)CC(=O)O)cc1[C@@]21OC(=O)c2ccccc21 [Decoy652] | Inactive (Decoy) |
| C=C1CC[C@@H]2[C@](C)(CC[C@H](O)[C@@]2(C)CO[C@H]2O[C@@H](CO[C@H]3O[C@@H](CO)[C@@H](O)[C@H]3O)[C@@H](O)[C@@H](O)[C@H]2O)[C@@H]1CC/C(C)=C\CO [Decoy611] | Inactive (Decoy) |
| O=P(O)(O)CCN1CCCN(CCP(=O)(O)O)CCN(CCP(=O)(O)O)CCCN(CCP(=O)(O)O)CC1 [Decoy548] | Inactive (Decoy) |
| CC(=O)OC[C@@H](OC(C)=O)[C@H](OC(C)=O)[C@H](OC(C)=O)[C@H](OC(C)=O)[C@@H]1N[C@H](C(=O)O)C(C)(C)S1 [Decoy590] | Inactive (Decoy) |
| CC(=O)O[C@H]1[C@@H](O)[C@H](CO)O[C@H](O[C@@H](/C=N\C23CC4CC(CC(C4)C2)C3)[C@@H](CO)O[C@H](O)/C=N/C23CC4CC(CC(C4)C2)C3)[C@@H]1O [Decoy407] | Inactive (Decoy) |
| Nc1nc(OCc2cc(Br)cs2)c2ncn(CCCCCCCCO[C@@H]3O[C@@H](CO)[C@@H](O)[C@@H](O)[C@H]3O)c2n1 [Decoy330] | Inactive (Decoy) |
| CC1(C)NC(=O)N(C[C@@H](O)COc2ccc(-c3ccc(OC[C@H](O)CN4C(=O)NC(C)(C)C4=O)cc3)cc2)C1=O [Decoy539] | Inactive (Decoy) |
| COc1cc(NC(=S)/N=C(/NCCCN2CCOCC2)Nc2nc(C)cc(C)n2)cc(OC)c1OC [Decoy386] | Inactive (Decoy) |
| C=CCn1c(Cc2csc(N)n2)nnc1SCC(=O)Nc1ccc(S(=O)(=O)Nc2cc(C)on2)cc1 [Decoy336] | Inactive (Decoy) |
| CCOC(=O)Cc1csc(NC(=O)CSc2nnc(Cc3csc(N)n3)n2C)n1 [Decoy522] | Inactive (Decoy) |
| Nc1nc(OCc2cc(Br)cs2)c2ncn(CCCCCCCCO[C@@H]3O[C@@H](CO)[C@@H](O)[C@@H](O)[C@@H]3O)c2n1 [Decoy329] | Inactive (Decoy) |
| CC[C@H]1OC(=O)[C@H](C)[C@@H](O[C@H]2OC[C@@](C)(OC)[C@@H](O)[C@@H]2C)[C@@H](C)[C@@H](O[C@H]2O[C@H](C)C[C@H](N(C)C)[C@H]2O)[C@](C)(O)C[C@H](C)/C(=N/O)[C@@H](C)[C@@H](O)[C@@]1(C)O [Decoy596] | Inactive (Decoy) |
| CC(C)(C)OC(=O)N[C@H](CSSC[C@@H](NC(=O)OC(C)(C)C)C(=O)OC[C@H]1O[C@H](O)[C@@H](O)[C@@H](O)[C@H]1O)C(=O)OC[C@H]1O[C@H](O)[C@@H](O)[C@@H](O)[C@H]1O [Decoy536] | Inactive (Decoy) |
| C[C@@H]1O[C@@H](O[C@H]2[C@H](O[C@@H]3CC[C@@H]4C(=CC[C@@H]5[C@@]4(C)C(=O)C[C@]4(C)[C@H]([C@@]6(C)O[C@H](C(C)(C)O)CC6=O)[C@H](O)C[C@@]54C)C3(C)C)O[C@H](CO)[C@@H](O)[C@@H]2O)[C@H](O)[C@H](O)[C@H]1O [Decoy472] | Inactive (Decoy) |
| C=C[C@](C)(O)CC/C=C(\C)C(=O)OC[C@H]1O[C@@H](O[C@@](C)(C=C)CC/C=C(\C)C(=O)O)[C@H](O)[C@@H](OC(=O)/C(C)=C/CC[C@](C)(O)C=C)[C@@H]1O [Decoy662] | Inactive (Decoy) |
| COc1cc(-c2nnc(SCC(=O)N/N=C/c3cccc(O)c3)n2-c2ccccc2)cc(OC)c1OC [Decoy474] | Inactive (Decoy) |
| CCCCN(CC(=O)Nc1c(-c2ccccc2)c(C)nn1-c1ccc(OC)cc1)C(=O)c1ccc(OC)cc1OC [Decoy368] | Inactive (Decoy) |
